These results are taken from ChEMBL document CHEMBL1147469, “Design and synthesis of de novo cytotoxic alkaloids through mimicking taxoid skeleton” (Bioorg Med Chem Lett, 2004).

What all share (assay type): functional, cell-based
One test has as its system MCF7R. As to the kind of experiment: In vitro cytotoxic activity against growth of MDR phenotype human breast carcinoma cell line (MCF-7-R) after 72 hr.
Another test deals with MCF7S. As to the kind of experiment: In vitro cytotoxic activity against growth of human breast carcinoma cell line (MCF-7-S) after 72 hr.
Test [1] deals with MDA-MB-435. As to the kind of experiment: In vitro cytotoxic activity against growth of human breast carcinoma cell line (LCC6-WT) after 72 hr. The following applies: MDA-MB-435, 72 h.
Test [2] has as its system MDA-MB-435. As to the kind of experiment: In vitro cytotoxic activity against growth of MDR1 transduced line (LCC6-MDR) after 72 hr. The following applies: Homo sapiens, MDA-MB-435, 72 h.

In general, IC50 refers to the concentration needed to halve the response being measured. Lower therefore signals higher potency. On to `CC(C)C[C@@H]1NC(=O)OCCCc2cccc(c2)C(=O)O[C@H]2C=CC(=O)N3C[C@H](C[C@H]23)OC(=O)[C@@H]1O`, for which the IC50 is > 20 µM in the test on MCF7R (Homo sapiens, MCF7R, 72 h); > 20 µM in the test on MCF7S (Homo sapiens, MCF7S, 72 h); > 20 µM in the test on MDA-MB-435 [1]; > 20 µM in the test on MDA-MB-435 [2].
`COc1cccc(C(=O)O[C@H]2CCC(=O)N3C[C@@H](OC(=O)[C@H](O)[C@H](CC(C)C)NC(=O)OC(C)(C)C)C[C@H]23)c1`: the IC50 in the test with MCF7R (Homo sapiens, MCF7R, 72 h) was > 20 µM; with MCF7S (Homo sapiens, MCF7S, 72 h), 14 µM; in the test with MDA-MB-435 [1], > 20 µM; with MDA-MB-435 [2], > 20 µM.
Take `CC(=O)O[C@H]1C(=O)[C@@]2(C)[C@H]([C@H](OC(=O)c3ccccc3)[C@]3(O)C[C@H](OC(=O)[C@H](O)[C@@H](NC(=O)c4ccccc4)c4ccccc4)C(C)=C1C3(C)C)[C@]1(OC(C)=O)CO[C@@H]1C[C@@H]2O` [PACLITAXEL]: the IC50 worked out at 1.19 µM in the test with MCF7R (Homo sapiens, MCF7R, 72 h); 0.002 µM in the test with MCF7S (Homo sapiens, MCF7S, 72 h); 0.004 µM in the test on MDA-MB-435 [1]; 0.379 µM with MDA-MB-435 [2].
On to CISPLATIN, for which the IC50 in the test with MCF7R (mcf7r) amounted to 3.53 µM; in the test on MCF7S (mcf7s), 3.97 µM.
